Laboratory results: ChEMBL document CHEMBL1143222, “Synthesis and in vitro activity of N'-cyano-4-(2-phenylacetyl)-N-o-tolylpiperazine-1-carboximidamide P2X7 antagonists” (Bioorg Med Chem Lett, 2008)
Calls of active or inactive are those of the source. The calls are words filed in the database; no cut-off is given here.

Key:
P2X purinoceptor 7 [1] = molecular target: T1, P2X purinoceptor 7 (Rattus norvegicus, UniProt Q64663); assay: Antagonist activity at rat recombinant P2X7 receptor assessed as inhibition of calcium flux by FLIPR assay; format: functional
T1 sequence (Q64663 whole entry): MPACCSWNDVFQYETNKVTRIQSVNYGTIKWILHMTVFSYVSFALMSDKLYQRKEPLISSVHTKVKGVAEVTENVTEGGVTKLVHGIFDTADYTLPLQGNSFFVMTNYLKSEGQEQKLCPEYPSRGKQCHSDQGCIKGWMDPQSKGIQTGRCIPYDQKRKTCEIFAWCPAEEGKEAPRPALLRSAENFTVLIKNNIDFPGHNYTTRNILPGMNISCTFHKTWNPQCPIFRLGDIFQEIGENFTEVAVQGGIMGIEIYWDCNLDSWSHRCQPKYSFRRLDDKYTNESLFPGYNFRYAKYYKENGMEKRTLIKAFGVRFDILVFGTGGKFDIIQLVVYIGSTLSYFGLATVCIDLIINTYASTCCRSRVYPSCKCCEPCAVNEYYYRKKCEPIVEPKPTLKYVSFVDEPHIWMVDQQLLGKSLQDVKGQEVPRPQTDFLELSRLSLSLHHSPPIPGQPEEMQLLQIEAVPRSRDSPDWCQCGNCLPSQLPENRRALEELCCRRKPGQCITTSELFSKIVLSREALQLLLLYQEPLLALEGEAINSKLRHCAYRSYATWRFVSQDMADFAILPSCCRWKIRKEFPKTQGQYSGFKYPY

P2X purinoceptor 7 [2] = molecular target: T2, P2X purinoceptor 7 (Homo sapiens, UniProt Q99572); assay: Antagonist activity at human recombinant P2X7 receptor assessed as inhibition of calcium flux by FLIPR assay; format: functional
T2 sequence (Q99572 whole entry): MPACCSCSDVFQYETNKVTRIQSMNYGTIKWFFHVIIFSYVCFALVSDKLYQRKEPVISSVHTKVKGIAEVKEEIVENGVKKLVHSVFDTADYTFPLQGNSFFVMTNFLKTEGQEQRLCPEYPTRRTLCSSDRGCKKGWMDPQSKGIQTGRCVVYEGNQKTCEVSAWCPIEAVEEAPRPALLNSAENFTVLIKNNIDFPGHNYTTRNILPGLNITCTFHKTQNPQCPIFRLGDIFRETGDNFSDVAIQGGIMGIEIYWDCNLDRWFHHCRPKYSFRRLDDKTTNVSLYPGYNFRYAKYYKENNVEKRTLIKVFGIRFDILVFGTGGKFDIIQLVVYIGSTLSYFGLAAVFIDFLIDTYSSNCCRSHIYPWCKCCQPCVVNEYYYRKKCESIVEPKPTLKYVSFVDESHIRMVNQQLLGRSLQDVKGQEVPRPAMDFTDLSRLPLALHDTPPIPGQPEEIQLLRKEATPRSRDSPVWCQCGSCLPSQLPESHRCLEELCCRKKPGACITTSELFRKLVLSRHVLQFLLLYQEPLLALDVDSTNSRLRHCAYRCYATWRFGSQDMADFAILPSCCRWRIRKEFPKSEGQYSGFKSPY

[3] = Inhibition of P2X2/3 receptor at 10 uM
[4] = molecular target: T3, P2X purinoceptor 3 (Homo sapiens) (UniProt P56373); assay: Inhibition of P2X3 receptor at 10 uM
T3 sequence (whole entry): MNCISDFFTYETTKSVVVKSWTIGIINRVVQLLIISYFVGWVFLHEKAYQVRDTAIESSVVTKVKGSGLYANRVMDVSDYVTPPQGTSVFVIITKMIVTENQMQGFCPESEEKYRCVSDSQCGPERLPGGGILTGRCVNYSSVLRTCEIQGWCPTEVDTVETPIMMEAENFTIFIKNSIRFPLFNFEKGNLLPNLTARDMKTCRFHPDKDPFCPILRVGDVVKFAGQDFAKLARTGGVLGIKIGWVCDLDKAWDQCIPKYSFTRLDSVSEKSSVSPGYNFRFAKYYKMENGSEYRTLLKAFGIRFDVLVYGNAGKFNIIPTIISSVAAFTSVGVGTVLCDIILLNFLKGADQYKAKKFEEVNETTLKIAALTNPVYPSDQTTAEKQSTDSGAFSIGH

[5] = molecular target: T4, P2X purinoceptor 4 (Homo sapiens) (UniProt Q99571); assay: Inhibition of P2X4 receptor at 10 uM
T4 sequence (whole entry): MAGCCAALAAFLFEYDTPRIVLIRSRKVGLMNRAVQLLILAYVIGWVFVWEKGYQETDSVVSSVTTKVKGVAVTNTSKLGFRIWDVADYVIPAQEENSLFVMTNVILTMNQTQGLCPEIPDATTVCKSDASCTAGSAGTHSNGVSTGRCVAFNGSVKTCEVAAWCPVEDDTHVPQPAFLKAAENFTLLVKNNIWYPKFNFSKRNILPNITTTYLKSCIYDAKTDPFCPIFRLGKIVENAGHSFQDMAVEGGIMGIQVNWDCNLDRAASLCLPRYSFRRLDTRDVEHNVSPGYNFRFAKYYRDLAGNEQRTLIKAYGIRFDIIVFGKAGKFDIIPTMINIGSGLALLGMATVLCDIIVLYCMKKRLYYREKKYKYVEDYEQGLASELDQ

[6] = molecular target: P2Y purinoceptor 2 (Homo sapiens) (UniProt P41231); assay: Inhibition of P2Y2 receptor at 10 uM
P2Y purinoceptor 2 (Homo sapiens), sequence (P41231 whole entry): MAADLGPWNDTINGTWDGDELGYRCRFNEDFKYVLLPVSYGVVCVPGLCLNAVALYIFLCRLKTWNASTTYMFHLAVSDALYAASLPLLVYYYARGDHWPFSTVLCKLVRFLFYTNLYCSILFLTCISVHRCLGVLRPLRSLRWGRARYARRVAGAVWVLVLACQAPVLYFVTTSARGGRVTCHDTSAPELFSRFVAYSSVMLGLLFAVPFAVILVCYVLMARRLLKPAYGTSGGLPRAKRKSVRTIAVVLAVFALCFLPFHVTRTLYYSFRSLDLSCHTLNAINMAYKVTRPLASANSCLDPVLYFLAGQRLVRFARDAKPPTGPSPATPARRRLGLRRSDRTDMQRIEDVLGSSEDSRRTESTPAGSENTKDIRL

SMILES	IC50 (P2X purinoceptor 7 [1]) [nM]	IC50 (P2X purinoceptor 7 [2]) [nM]	also measured
Cc1ccccc1N/C(=N\C#N)N1CCN(C(=O)Cc2cccnc2)C(c2ccccc2)C1 (stereo unspecified)	390	40	–
Cc1cc(CC(=O)N2CCN(/C(=N/C#N)Nc3ccccc3C)CC2c2ccccc2)no1 (stereo unspecified)	610	410	–
Cc1cc(CC(=O)N2CCN(C(=Nc3ccccc3C)NC#N)CC2c2ccccc2)on1 (stereo unspecified)	170	46	–
Cc1ccccc1N/C(=N\C#N)N1CCN(C(=O)Cc2ccsc2)C(c2ccccc2)C1 (stereo unspecified)	270	71	–
COc1ccc(CCC(=O)N2CCN(/C(=N/C#N)Nc3ccccc3C)CC2c2ccccc2)cc1OC (stereo unspecified)	76	57	–
Cc1ccccc1N=C(NC#N)N1CCN(C(=O)Cc2ccc(Cl)cc2)C(c2ccccc2)C1 (stereo unspecified)	110	140	–
COc1ccc(CC(=O)N2CCN(C(=Nc3ccccc3C)NC#N)[C@H](CC(C)C)C2)cc1OC	4500	430	–
Cc1ccccc1N=C(NC#N)N1CCN(C(=O)Cc2ccccc2)C(c2ccccc2)C1 (stereo unspecified)	380	88	–
Cc1ccccc1N/C(=N\C#N)N1CCN(C(=O)Cc2ccoc2)C(c2ccccc2)C1 (stereo unspecified)	250	220	–
Cc1ccccc1N=C(NC#N)N1CCN(C(=O)Cc2ccco2)C(c2ccccc2)C1 (stereo unspecified)	520	110	–
COc1ccc(CC(=O)N2CCN(C(=Nc3ccccc3C)NC#N)C(c3ccccc3)C2)cc1OC (stereo unspecified)	220	51	–
Cc1ccccc1N/C(=N\C#N)N1CCN(C(=O)Cc2ccc3ccccc3c2)C(c2ccccc2)C1 (stereo unspecified)	140	310	–
Cc1ccccc1N/C(=N\C#N)N1CCN(C(=O)Cc2cccs2)C(c2ccccc2)C1 (stereo unspecified)	150	46	–
COc1ccc(CC(=O)N2CCN(/C(=N/C#N)Nc3ccccc3C)CC2C(C)(C)C)cc1OC (stereo unspecified)	420	190	–
COc1ccc(CC(=O)N2CCN(C(=Nc3ccccc3C)NC#N)CC2c2ccccc2)cc1OC (stereo in doubt; 7)	140	58	–
Cc1ccn(CC(=O)N2CCN(/C(=N/C#N)Nc3ccccc3C)CC2c2ccccc2)n1 (stereo unspecified)	320	40	–
COc1ccc(C(=O)N2CCN(/C(=N/C#N)Nc3cccc4ncccc34)CC2c2ccccc2)cc1OC (stereo unspecified)	–	–	Activity [3]: inactive; Activity [4]: inactive; Activity [5]: inactive; Activity [6]: inactive
COc1ccc(CC(=O)NC(NC(=NC#N)Nc2ccccc2C)C(C)(C)C)cc1OC (stereo unspecified)	14	120	–
Cc1ccccc1N=C(NC#N)N1CCN(C(=O)Cc2ccncc2)C(c2ccccc2)C1 (stereo unspecified)	150	36	–
COc1ccc(CCCC(=O)N2CCN(/C(=N/C#N)Nc3ccccc3C)CC2c2ccccc2)cc1OC (stereo unspecified)	95	70	–
Cc1ccccc1N/C(=N\C#N)N1CCN(C(=O)Cn2nccc2C)C(c2ccccc2)C1 (stereo unspecified)	560	60	–
COc1ccc(CC(=O)N2CCN(C(=Nc3ccccc3C)NC#N)[C@H](C(C)C)C2)cc1OC	16000	1300	–
Cc1ccccc1N/C(=N\C#N)N1CCN(C(=O)Cc2c[nH]c3ccccc23)C(c2ccccc2)C1 (stereo unspecified)	210	100	–
COc1ccc(CC(=O)NC(N/C(=N/C#N)Nc2cccc3ncccc23)C(C)(C)C)cc1OC (stereo unspecified)	–	44	–
COc1ccc(C(=O)N2CCN(C(=Nc3cccc4ncccc34)NC#N)CC2c2ccccc2)cc1OC (stereo unspecified)	30	59	–
Cc1ccccc1N/C(=N\C#N)N1CCN(C(=O)CC23CC4CC(CC(C4)C2)C3)C(c2ccccc2)C1 (stereo unspecified)	630	1500	–
COc1ccc(CC(=O)N2CCN(C(=Nc3ccccc3C)NC#N)CC2c2ccccc2)cc1OC (stereo in doubt; 26)	140	58	–
COc1ccc(C(=O)N2CCN(C(=Nc3ccccc3C)NC#N)CC2c2ccccc2)cc1OC (stereo unspecified)	290	94	–
Cc1ccccc1N/C(=N\C#N)N1CCN(C(=O)Cc2c[nH]cn2)C(c2ccccc2)C1 (stereo unspecified)	14000	1000	–
COc1ccc(CC(=O)N2C(C)CN(C(=Nc3ccccc3C)NC#N)CC2C)cc1OC (cis isomer)	19000	460	–
